Test results as given in patent US10662228B2 (priority 2014, dated 2020).

Tested on: potassium ion channel current of the DRG neurons
Assay type: cell-based, SD rats
Settings: 5 mM

In the case of `Nc1ccncc1` [4AP, 4-aminopyridine], the Current inhibition rate is reported as 0.338 and the “Current recorded after loading” value is reported as 0.9766 nA.
